Source: ChEMBL document CHEMBL1201862, “PubChem BioAssay data set” (2004)
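Five compound concentrations were applied to cells in 96-well plates for 48 hours; endpoints were derived by simple linear interpolation of the resulting dose-response curve. Abbreviation: GI50, concentration required for 50% inhibition of growth.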 The source made the active and inactive calls. Rule as the data show it: active = GI50 up to about 1.1 µM and inactive = higher. Where a SMILES comes first, the peptide text is derived from it. The star is where a group is joined. Boc = CC(C)(C)OC(=O)*; OSu = O=C1CCC(=O)N1O*

How the values were obtained:
Test in all cases: NCI tumour cell line growth inhibition, 48 h
[1] = system: PC-3
[2] = system: U-251
[3] = system: CCRF-CEM
[4] = system: OVCAR-4
[5] = system: A549
[6] = system: OVCAR-3
[7] = system: MDA-MB-435
[8] = system: SK-MEL-5
[9] = system: OVCAR-8
[10] = system: MOLT-4
[11] = system: DU-145
[12] = system: SK-OV-3
[13] = system: SNB-75
[14] = system: RXF 393
[15] = system: CAKI-1
[16] = system: Malme-3M
[17] = system: UO-31
[18] = system: HOP-92
[19] = system: LOX IMVI
[20] = system: UACC-257
[21] = system: NCI-H522
[22] = system: TK-10
[23] = system: IGROV-1
[24] = system: RPMI-8226
[25] = system: MDA-MB-231
[26] = system: SNB-19
[27] = system: NCI-H226
[28] = system: 786-0
[29] = system: SR
[30] = system: HCT-15
[31] = system: NCI-H23
[32] = system: K562
[33] = system: M14
[34] = system: KM12
[35] = system: SW-620
[36] = system: T47D
[37] = system: UACC-62
[38] = system: SK-MEL-2
[39] = system: SF-295
[40] = system: HCT-116
[41] = system: A498
[42] = system: SF-268
[43] = system: COLO 205
[44] = system: OVCAR-5
[45] = system: BT-549
[46] = system: Hs-578T
[47] = system: HT-29
[48] = system: EKVX
[49] = system: HOP-62
[50] = system: MDA-N
[51] = system: SN12C
[52] = system: SK-MEL-28
[53] = system: NCI/ADR-RES
[54] = system: HCC 2998
[55] = system: HL-60
[56] = system: SF-539
[57] = system: ACHN
[58] = system: NCI-H460
[59] = system: MCF7

O=S(=O)(O)c1c(/N=N/c2c(O)ccc3ccccc23)ccc2ccccc12
GI50 [1]: > 100 µM (inactive) | GI50 [2]: > 100 µM (inactive) | GI50 [3]: 48.4 µM (inactive) | GI50 [4]: > 100 µM (inactive) | GI50 [5]: > 100 µM (inactive) | GI50 [6]: > 100 µM (inactive) | GI50 [7]: > 100 µM (inactive) | GI50 [8]: > 100 µM (inactive) | GI50 [9]: > 100 µM (inactive) | GI50 [10]: > 100 µM (inactive) | GI50 [11]: > 100 µM (inactive) | GI50 [12]: 79.8 µM (inactive) | GI50 [13]: > 100 µM (inactive) | GI50 [14]: > 100 µM (inactive) | GI50 [15]: > 100 µM (inactive) | GI50 [16]: 55.1 µM (inactive) | GI50 [17]: 76.7 µM (inactive) | GI50 [18]: > 100 µM (inactive) | GI50 [19]: > 100 µM (inactive) | GI50 [20]: > 100 µM (inactive) | GI50 [21]: 93.5 µM (inactive) | GI50 [22]: > 100 µM (inactive) | GI50 [23]: 79.8 µM (inactive) | GI50 [24]: > 100 µM (inactive) | GI50 [25]: > 100 µM (inactive) | GI50 [26]: > 100 µM (inactive) | GI50 [27]: 19.4 µM (inactive) | GI50 [28]: > 100 µM (inactive) | GI50 [29]: > 100 µM (inactive) | GI50 [30]: > 100 µM | GI50 [31]: > 100 µM (inactive) | GI50 [32]: > 100 µM (inactive) | GI50 [33]: > 100 µM (inactive) | GI50 [34]: > 100 µM (inactive) | GI50 [35]: > 100 µM (inactive) | GI50 [36]: > 100 µM (inactive) | GI50 [37]: > 100 µM (inactive) | GI50 [38]: > 100 µM (inactive) | GI50 [39]: > 100 µM (inactive) | GI50 [40]: > 100 µM (inactive) | GI50 [41]: > 100 µM (inactive) | GI50 [42]: 51.4 µM (inactive) | GI50 [43]: 70.1 µM (inactive) | GI50 [44]: > 100 µM (inactive) | GI50 [45]: > 100 µM (inactive) | GI50 [46]: > 100 µM (inactive) | GI50 [47]: > 100 µM (inactive) | GI50 [48]: > 100 µM (inactive) | GI50 [49]: > 100 µM (inactive) | GI50 [50]: > 100 µM (inactive) | GI50 [51]: > 100 µM (inactive) | GI50 [52]: > 100 µM (inactive) | GI50 [53]: > 100 µM (inactive)

CN(C)CCNC1=C(Cl)C(=O)c2c(O)ccc(O)c2C1=O
GI50 [1]: 6.31 µM (inactive) | GI50 [2]: 1.84 µM (inactive) | GI50 [3]: 2.01 µM (inactive) | GI50 [4]: 1.87 µM (inactive) | GI50 [5]: 2.58 µM (inactive) | GI50 [54]: 1.79 µM (inactive) | GI50 [6]: 1.98 µM (inactive) | GI50 [7]: 1.71 µM (inactive) | GI50 [55]: 2.38 µM (inactive) | GI50 [8]: 1.54 µM (inactive) | GI50 [9]: 1.9 µM (inactive) | GI50 [10]: 2.88 µM (inactive) | GI50 [11]: 1.94 µM (inactive) | GI50 [12]: 18.2 µM (inactive) | GI50 [13]: 2.99 µM (inactive) | GI50 [14]: 4.34 µM (inactive) | GI50 [16]: 2.09 µM (inactive) | GI50 [17]: 2.02 µM (inactive) | GI50 [56]: 1.73 µM (inactive) | GI50 [18]: 2.17 µM (inactive) | GI50 [20]: 1.72 µM (inactive) | GI50 [21]: 1.79 µM (inactive) | GI50 [22]: 2.33 µM (inactive) | GI50 [23]: 1.6 µM (inactive) | GI50 [24]: 2.65 µM (inactive) | GI50 [25]: 1.38 µM (inactive) | GI50 [57]: 3.5 µM (inactive) | GI50 [26]: 1.95 µM (inactive) | GI50 [27]: 23.6 µM (inactive) | GI50 [28]: 2.08 µM (inactive) | GI50 [30]: 2.51 µM | GI50 [31]: 2.18 µM (inactive) | GI50 [32]: 2.76 µM (inactive) | GI50 [33]: 1.95 µM (inactive) | GI50 [34]: 1.82 µM (inactive) | GI50 [35]: 2.02 µM (inactive) | GI50 [36]: 2.08 µM (inactive) | GI50 [37]: 1.85 µM (inactive) | GI50 [38]: 2.1 µM (inactive) | GI50 [39]: 2.12 µM (inactive) | GI50 [40]: 1.91 µM (inactive) | GI50 [41]: 3.39 µM (inactive) | GI50 [42]: 17.1 µM (inactive) | GI50 [43]: 1.93 µM (inactive) | GI50 [44]: 1.74 µM (inactive) | GI50 [45]: 1.72 µM (inactive) | GI50 [46]: 2.99 µM (inactive) | GI50 [47]: 1.85 µM (inactive) | GI50 [48]: 2.97 µM (inactive) | GI50 [49]: 1.95 µM (inactive) | GI50 [50]: 2.59 µM (inactive) | GI50 [51]: 1.89 µM (inactive) | GI50 [58]: 1.95 µM (inactive) | GI50 [52]: 2.12 µM (inactive) | GI50 [53]: 3.12 µM (inactive)

CC(C)(C)OC(=O)NC(Cc1ccc(O)cc1)C(=O)NC(CCCCN)C(=O)NC(Cc1ccc(O)cc1)C(=O)NC(CCCCN)C(=O)ON1C(=O)CCC1=O (stereo not given) (Boc-YKYK-OSu; configuration not given here)
GI50 [1]: > 100 µM (inactive) | GI50 [2]: > 100 µM (inactive) | GI50 [3]: > 100 µM (inactive) | GI50 [5]: > 100 µM (inactive) | GI50 [54]: > 100 µM (inactive) | GI50 [55]: > 100 µM (inactive) | GI50 [8]: > 100 µM (inactive) | GI50 [9]: > 100 µM (inactive) | GI50 [10]: > 100 µM (inactive) | GI50 [13]: > 100 µM (inactive) | GI50 [14]: > 100 µM (inactive) | GI50 [16]: > 100 µM (inactive) | GI50 [17]: > 100 µM (inactive) | GI50 [18]: > 100 µM (inactive) | GI50 [20]: > 100 µM (inactive) | GI50 [22]: > 100 µM (inactive) | GI50 [23]: 85.3 µM (inactive) | GI50 [24]: > 100 µM (inactive) | GI50 [25]: > 100 µM (inactive) | GI50 [57]: > 100 µM (inactive) | GI50 [26]: > 100 µM (inactive) | GI50 [27]: > 100 µM (inactive) | GI50 [28]: > 100 µM (inactive) | GI50 [59]: > 100 µM (inactive) | GI50 [29]: > 100 µM (inactive) | GI50 [30]: > 100 µM | GI50 [31]: > 100 µM (inactive) | GI50 [32]: > 100 µM (inactive) | GI50 [33]: > 100 µM (inactive) | GI50 [34]: > 100 µM (inactive) | GI50 [35]: > 100 µM (inactive) | GI50 [36]: > 100 µM (inactive) | GI50 [37]: > 100 µM (inactive) | GI50 [38]: > 100 µM (inactive) | GI50 [40]: > 100 µM (inactive) | GI50 [41]: > 100 µM (inactive) | GI50 [43]: > 100 µM (inactive) | GI50 [44]: > 100 µM (inactive) | GI50 [45]: > 100 µM (inactive) | GI50 [46]: > 100 µM (inactive) | GI50 [47]: 89.3 µM (inactive) | GI50 [48]: > 100 µM (inactive) | GI50 [49]: > 100 µM (inactive) | GI50 [50]: > 100 µM (inactive) | GI50 [51]: > 100 µM (inactive) | GI50 [58]: > 100 µM (inactive) | GI50 [52]: > 100 µM (inactive)
